Laboratory results from PMC10304372, “T-705-Derived Prodrugs Show High Antiviral Efficacies against a Broad Range of Influenza A Viruses with Synergistic Effects When Combined with Oseltamivir” (Pharmaceutics, 2023).
Read-outs that look alike come from different tables or passages of the source.

Experiments:
A/Victoria/03/75 (H3N2) = type: cell-based, influenza A virus
[1] = tested on: A/Hamburg/NY1580/09 (H1N1); test: microbe, parasite or virus in culture; type: cell-based, influenza A virus; conditions: for IC50: read-out: IC50 H1N1
A/Vietnam/1194/04 (H5N1) = test: microbe, parasite or virus in culture; type: cell-based, influenza A virus; conditions: for IC90: read-out: IC90 (90% inhibitory effect on viral replication), H5N1
A/Anhui/1/13 (H7N9) = test: microbe, parasite or virus in culture; type: cell-based, influenza A virus; conditions: for IC50: read-out: IC50 H7N9
in vitro = conditions: dog
MDCKII cells = conditions: for concentration from which considerable cell cytotoxicity was caused: dog
[2] = tested on: RdRP subunit PA (polymerase acidic protein); conditions: cited from earlier work
H5N1 HPAIV = type: cell-based, influenza A virus
[3] = Influenza A virus, H1N1, MDCK-II, 24 h
[4] = Influenza A virus, H5N1, MDCK-II, 24 h, read-out: IC50 H5N1
[5] = Influenza A virus, H7N9, MDCK-II, 24 h
[6] = Influenza A virus, H5N1, MDCK-II

For `NC(=O)c1nc(F)c[nH]c1=O` [1a, T-705], the “reduction of virus replication” value (A/Victoria/03/75 (H3N2)) was “approximately 1.5 logs”, the IC50 [1, 3] was 1290 nM and the IC50 [1] was 1300 ± 1400 nM. For the same compound, the IC50 (A/Vietnam/1194/04 (H5N1); [4]) was 1140 nM, the IC50 (A/Vietnam/1194/04 (H5N1); read-out: IC50 H5N1) was 1140 ± 1170 nM and the IC50 (A/Anhui/1/13 (H7N9); [5]) was 790 ± 540 nM. The CC50 (in vitro) was > 50000 nM and the “effect on cell viability (in words)” value (MDCKII cells) was “did not affect cell viability”.
In the case of `O=C1c2c(O)c(=O)ccn2N([C@@H]2c3ccccc3SCc3c2ccc(F)c3F)[C@@H]2COCCN12` [Baloxavir, baloxavir], the “inhibitory activity on PA of various IAV subtypes incl. H5N1 and H7N9 (in words)” value [2] is listed as “pico- to nanomolar activity”.
With `NC(=O)c1nccn([C@@H]2O[C@H](CO)[C@@H](O)[C@H]2O)c1=O` [2a, T-1106] the “antiviral activity against H3N2 IAV (in words)” value (from here on “antiviral activity … (in words)”) (A/Victoria/03/75 (H3N2)) was “slightly higher activity compared to T-1105 1b”.
With `NC(=O)c1ncc[nH]c1=O` [1b, T-1105, reference compound] the “reduction of virus replication” value (A/Victoria/03/75 (H3N2)) was “approximately 1.5 logs”.
In the case of `CCCCCCCCCCCCCCC(=O)Oc1ccc(COP(=O)(OCc2ccc(OC(=O)CCCC)cc2)OP(=O)(O)OC[C@H]2O[C@@H](n3ccnc(C(N)=O)c3=O)[C@H](O)[C@@H]2O)cc1` (stereo partly drawn) [3b], the “antiviral activity … (in words)” value (A/Victoria/03/75 (H3N2)) is reported as “reduced viral titers to the limit of detection”, the “SI (selectivity index) H1N1” value [1] is reported as 66.4 and the IC50 [1, 3] is reported as 1490 nM. The IC50 [1] was 1490 ± 2360 nM, the “SI (selectivity index) H5N1” value (A/Vietnam/1194/04 (H5N1)) was 850.9 and the “reduction of H5N1 virus titers to the limit of detection (in words)” value (A/Vietnam/1194/04 (H5N1)) was “to the limit of detection”. The IC50 (A/Vietnam/1194/04 (H5N1); [4]) was 120 nM, the IC50 (A/Vietnam/1194/04 (H5N1); read-out: IC50 H5N1) was 116 ± 13 nM and the “SI (selectivity index) H7N9” value (A/Anhui/1/13 (H7N9)) was 158.2. For the same compound, the “antiviral activity against H7N9 compared to 1a (comparable or fold reduced)” value (A/Anhui/1/13 (H7N9)) was “comparable”, the “reduction of H7N9 virus titers to the limit of detection (in words)” value (A/Anhui/1/13 (H7N9)) was “to the limit of detection” and the IC50 (A/Anhui/1/13 (H7N9); [5]) was 620 nM. For the same compound, the IC50 (A/Anhui/1/13 (H7N9)) was 624 ± 1040 nM, the CC50 (in vitro) was > 50000 nM and the “concentration from which considerable cell cytotoxicity was caused” value (from here on “concentration”) (MDCKII cells) was ≥ 30 µM.
With `CCCCCCCCCC(=O)Oc1ccc(COP(=O)(OCc2ccc(OC(=O)CCCCCCCCC)cc2)OP(=O)(O)OP(=O)(O)OC[C@H]2O[C@@H](n3ccnc(C(N)=O)c3=O)[C@H](O)[C@@H]2O)cc1` [4a, T-1106-C9C9-TriPPPro] the “antiviral activity … (in words)” value (A/Victoria/03/75 (H3N2)) was “modest reduction in viral replication”, the “SI (selectivity index) H1N1” value [1] was 43.6 and the IC50 [1, 3] was 3320 nM. For the same compound, the IC50 [1] was 3320 ± 4410 nM, the “SI (selectivity index) H5N1” value (A/Vietnam/1194/04 (H5N1)) was 460.2 and the IC50 (A/Vietnam/1194/04 (H5N1); [4]) was 310 nM. The IC50 (A/Vietnam/1194/04 (H5N1); read-out: IC50 H5N1) was 314 ± 380 nM, the “SI (selectivity index) H7N9” value (A/Anhui/1/13 (H7N9)) was 71.5 and the “antiviral activity against H7N9 compared to 1a (comparable or fold reduced)” value (A/Anhui/1/13 (H7N9)) was 2.5 fold. The IC50 (A/Anhui/1/13 (H7N9); [5]) was 2020 ± 1230 nM, the CC50 (in vitro) was > 50000 nM and the “concentration” value (MDCKII cells) was ≥ 30 µM.
With `CCOC(=O)C1=C[C@@H](OC(CC)CC)[C@H](NC(C)=O)[C@@H](N)C1` [oseltamivir] the “IC1 (1% inhibitory effect on viral replication), H5N1” value (A/Vietnam/1194/04 (H5N1)) was 0.00002 µM, the “IC10 (10% inhibitory effect on viral replication), H5N1” value (A/Vietnam/1194/04 (H5N1)) was 0.5 nM and the IC50 (A/Vietnam/1194/04 (H5N1); Influenza A virus, H5N1, MDCK-II, 24 h, read-out: IC50 H5N1 (oseltamivir)) was 8 nM. The IC90 (A/Vietnam/1194/04 (H5N1); [6]) was 127 nM and the CC50 (in vitro) was > 100000 nM.
With `CCCCCCCCCC(=O)Oc1ccc(COP(=O)(OCc2ccc(OC(=O)CCCCCCCCC)cc2)OP(=O)(O)OC[C@H]2O[C@@H](n3ccnc(C(N)=O)c3=O)[C@H](O)[C@@H]2O)cc1` [3a] the “antiviral activity … (in words)” value (A/Victoria/03/75 (H3N2)) was “reduced viral titers to the limit of detection”, the “SI (selectivity index) H1N1” value [1] was 643.9 and the “increase in antiviral activity compared to 1a (T-705), H1N1” value [1] was 10 fold. For the same compound, the IC50 [1, 3] was 130 ± 140 nM, the “interaction with oseltamivir against H5N1 (in words)” value (H5N1 HPAIV) was “strong synergistic effect” and the “IC1 (1% inhibitory effect on viral replication), H5N1” value (A/Vietnam/1194/04 (H5N1)) was 0.0005 µM. The “IC10 (10% inhibitory effect on viral replication), H5N1” value (A/Vietnam/1194/04 (H5N1)) was 13.2 nM, the “SI (selectivity index) H5N1” value (A/Vietnam/1194/04 (H5N1)) was 373.7 and the “reduction of H5N1 virus titers to the limit of detection (in words)” value (A/Vietnam/1194/04 (H5N1)) was “to the limit of detection”. The IC50 (A/Vietnam/1194/04 (H5N1); [4]) was 220 nM, the IC50 (A/Vietnam/1194/04 (H5N1); Influenza A virus, H5N1, MDCK-II, read-out: IC50, H5N1, as used for combination treatment) was 267 nM and the IC90 (A/Vietnam/1194/04 (H5N1); [6]) was 5400 nM. For the same compound, the IC50 (A/Vietnam/1194/04 (H5N1); read-out: IC50 H5N1) was 224 ± 230 nM, the “SI (selectivity index) H7N9” value (A/Anhui/1/13 (H7N9)) was 1179.0 and the “more active than 1a against H7N9” value (A/Anhui/1/13 (H7N9)) was 10 fold. The “reduction of H7N9 virus titers to the limit of detection (in words)” value (A/Anhui/1/13 (H7N9)) was “to the limit of detection”, the IC50 (A/Anhui/1/13 (H7N9); [5]) was 70 nM and the IC50 (A/Anhui/1/13 (H7N9)) was 71 ± 90 nM. The CC50 (in vitro) was > 50000 nM and the “concentration” value (MDCKII cells) was ≥ 30 µM.
